Measured values from ChEMBL document CHEMBL5050844 (2019).

Experiments:
[1] = Induction of anti-CD3 antibodies-stimulated human T cell activation at 1 uM assessed fold increase in IL-2 secretion measured by ELISA assay; assay type: functional, T cell line; also: reference of the scale not given here
[2] = Induction of anti-CD3 antibodies-stimulated human CD8+ T cell activation at 1.11 uM assessed fold increase in cell proliferation measured by flow cytometry analysis; assay type: functional, T cell line; also: reference of the scale not given here
[3] = Induction of anti-CD3/CD28 antibodies-stimulated human T cell activation at 1.11 uM assessed fold increase in IFN-gamma secretion measured by ELISA assay; assay type: functional, T cell line
[4] = Induction of activation of human CD56+ CD3- NK cells co-cultured with human K562 cells in 1:1 ratio and assessed as increase in IFN-gamma secretion at 10 uM measured by ELISA assay; assay type: functional, Natural killer cell
[5] = Induction of anti-CD3 antibodies-stimulated human T cell activation at 10 uM assessed fold increase in GM-CSF secretion measured by ELISA assay; assay type: functional, T cell line; also: reference of the scale not given here
[6] = Induction of anti-CD3/CD28 antibodies-stimulated human T cell activation at 1 uM assessed fold increase in IL-2 secretion measured by ELISA assay; assay type: functional, T cell line
B cell = assay: Induction of anti-IgM-stimulated human CD20+ B cell activation at 10 to 1000 uM assessed as increase in CD69 expression measured as mean fluorescence intensity AUC by flow cytometry analysis; assay type: functional, cell-based; details: dose 10-1000 µM
[7] = Induction of anti-CD3 antibodies-stimulated human T cell activation at 10 uM assessed fold increase in IFN-gamma secretion measured by ELISA assay; assay type: functional, T cell line; also: reference of the scale not given here
[8] = Induction of anti-CD3 antibodies-stimulated human exhausted CD4+ T cell activation assessed fold increase in CTLA4 expression measured by flow cytometry analysis; assay type: functional, T cell line; also: reference of the scale not given here
[9] = Induction of anti-CD3/CD28 antibodies-stimulated human CD4+ T cell activation at 1.11 uM assessed fold increase in cell proliferation measured by flow cytometry analysis; assay type: functional, T cell line
[10] = Induction of anti-CD3 antibodies-stimulated human CD4+ T cell activation at 1.11 uM assessed fold increase in CD69 expression measured by flow cytometry analysis; assay type: functional, T cell line; also: reference of the scale not given here
[11] = Induction of anti-CD3/CD28 antibodies-stimulated human T cell activation at 4 uM assessed fold increase in IL-2 secretion measured by ELISA assay; assay type: functional, T cell line
[12] = Induction of anti-CD3/CD28 antibodies-stimulated human CD4+ T cell activation at 10 uM assessed fold increase in cell proliferation measured by flow cytometry analysis; assay type: functional, T cell line
[13] = Induction of anti-CD3 antibodies-stimulated human T cell activation at 1 uM assessed fold increase in CD25 expression measured by ELISA assay; assay type: functional, T cell line; also: reference of the scale not given here
[14] = Induction of anti-CD3/CD28 antibodies-stimulated human T cell activation at 4 uM assessed fold increase in CD25 expression measured by ELISA assay; assay type: functional, T cell line
[15] = Induction of anti-CD3/CD28 antibodies-stimulated human anergic T cell activation at 0.37 uM assessed fold increase in IFN-gamma secretion measured by ELISA assay; assay type: functional, T cell line
[16] = Induction of anti-CD3/CD28 antibodies-stimulated human T cell activation at 10 uM assessed fold increase in TNF-alpha secretion measured by ELISA assay; assay type: functional, T cell line
[17] = Induction of anti-CD3 antibodies-stimulated human exhausted T cell activation assessed fold increase in GM-CSF secretion measured by ELISA assay; assay type: functional, T cell line; also: reference of the scale not given here
[18] = Induction of activation of human CD56+ CD3- NK cells co-cultured with human K562 cells in 1:1 ratio and assessed as increase in TNF-alpha secretion at 2.5 uM measured by ELISA assay; assay type: functional, Natural killer cell
[19] = Induction of activation of human CD56+ CD3- NK cells co-cultured with human K562 cells in 1:1 ratio and assessed as increase in IFN-gamma secretion at 0.625 uM measured by ELISA assay; assay type: functional, Natural killer cell
[20] = Induction of anti-CD3 antibodies-stimulated human T cell activation at 1.11 uM assessed fold increase in GM-CSF secretion measured by ELISA assay; assay type: functional, T cell line; also: reference of the scale not given here
[21] = Induction of anti-CD3/CD28 antibodies-stimulated human T cell activation at 1.11 uM assessed fold increase in TNF-alpha secretion measured by ELISA assay; assay type: functional, T cell line
[22] = Induction of anti-CD3 antibodies-stimulated human CD8+ T cell activation at 10 uM assessed fold increase in cell proliferation measured by flow cytometry analysis; assay type: functional, T cell line; also: reference of the scale not given here
[23] = Induction of anti-CD3/CD28 antibodies-stimulated human CD8+ T cell activation at 10 uM assessed fold increase in CD69 expression measured by flow cytometry analysis; assay type: functional, T cell line
[24] = Induction of anti-CD3/CD28 antibodies-stimulated human anergic T cell activation at 1.11 uM assessed fold increase in IFN-gamma secretion measured by ELISA assay; assay type: functional, T cell line
[25] = Induction of anti-CD3/CD28 antibodies-stimulated human CD8+ T cell activation at 1.11 uM assessed fold increase in cell proliferation measured by flow cytometry analysis; assay type: functional, T cell line
[26] = Induction of anti-CD3/CD28 antibodies-stimulated human CD8+ T cell activation at 1.11 uM assessed fold increase in CD69 expression measured by flow cytometry analysis; assay type: functional, T cell line
[27] = Induction of anti-CD3 antibodies-stimulated human CD4+ T cell activation at 10 uM assessed fold increase in CD69 expression measured by flow cytometry analysis; assay type: functional, T cell line; also: reference of the scale not given here
[28] = Induction of anti-CD3 antibodies-stimulated human CD8+ T cell activation at 1.11 uM assessed fold increase in CD69 expression measured by flow cytometry analysis; assay type: functional, T cell line; also: reference of the scale not given here
[29] = Induction of activation of human CD56+ CD3- NK cells co-cultured with human K562 cells in 1:1 ratio and assessed as increase in TNF-alpha secretion at 0.625 uM measured by ELISA assay; assay type: functional, Natural killer cell
[30] = Induction of anti-CD3/CD28 antibodies-stimulated human CD8+ T cell activation at 10 uM assessed fold increase in cell proliferation measured by flow cytometry analysis; assay type: functional, T cell line
[31] = Induction of anti-CD3 antibodies-stimulated human exhausted T cell activation assessed fold increase in IL-2 secretion measured by ELISA assay; assay type: functional, T cell line; also: reference of the scale not given here
[32] = Induction of anti-CD3 antibodies-stimulated human exhausted CD8+ T cell activation assessed fold increase in CTLA4 expression measured by flow cytometry analysis; assay type: functional, T cell line; also: reference of the scale not given here
[33] = Induction of anti-CD3 antibodies-stimulated human CD8+ T cell activation at 10 uM assessed fold increase in CD69 expression measured by flow cytometry analysis; assay type: functional, T cell line; also: reference of the scale not given here
[34] = Induction of anti-CD3/CD28 antibodies-stimulated human T cell activation at 1.11 uM assessed fold increase in GM-CSF secretion measured by ELISA assay; assay type: functional, T cell line
[35] = Induction of activation of human CD56+ CD3- NK cells co-cultured with human K562 cells in 1:1 ratio and assessed as increase in IFN-gamma secretion at 2.5 uM measured by ELISA assay; assay type: functional, Natural killer cell
[36] = Induction of anti-CD3/CD28 antibodies-stimulated human T cell activation at 0.3 uM assessed fold increase in CD25 expression measured by ELISA assay; assay type: functional, T cell line
[37] = Induction of anti-CD3 antibodies-stimulated human T cell activation at 8 uM assessed fold increase in IL-2 secretion measured by ELISA assay; assay type: functional, T cell line; also: reference of the scale not given here

Structure (SMILES): Cn1cnnc1[C@@H]1C[C@@H]1c1cccc(N2Cc3c(cccc3C(F)(F)F)C2=O)c1
- fold change (FC) [1]: <=0.05
- fold change (FC) [2]: <=2
- fold change (FC) [3]: <=2
- fold change (FC) [4]: 2.01
- fold change (FC) [5]: 2.01
- fold change (FC) [6]: 1.01
- AUC (B cell): 0.5
- fold change (FC) [7]: 2.01
- fold change (FC) [8]: <=1.4
- fold change (FC) [9]: <=2
- fold change (FC) [10]: <=1.2
- fold change (FC) [11]: 2.51
- fold change (FC) [12]: >4
- fold change (FC) [13]: 0.601
- fold change (FC) [14]: >=1.76
- fold change (FC) [15]: <=2.5
- fold change (FC) [16]: 2.01
- fold change (FC) [17]: <=1.4
- fold change (FC) [18]: 1.01
- fold change (FC) [19]: 2.01
- fold change (FC) [20]: <=1.5
- fold change (FC) [21]: <=1.5
- fold change (FC) [22]: 3.01
- fold change (FC) [23]: 1.201
- fold change (FC) [24]: <=2.5
- fold change (FC) [25]: <=2
- fold change (FC) [26]: <=1.2
- fold change (FC) [27]: 1.201
- fold change (FC) [28]: <=1.2
- fold change (FC) [29]: 1.01
- fold change (FC) [30]: 2.01
- fold change (FC) [31]: 2.51
- fold change (FC) [32]: <=1.4
- fold change (FC) [33]: <=1.2
- fold change (FC) [34]: 1.51
- fold change (FC) [35]: 1.01
- fold change (FC) [36]: >=1.76
- fold change (FC) [37]: <=0.05

Structure (SMILES): Cc1cc2c(c(C3CC3)n1)CN(c1cccc([C@H](C)Cc3nncn3C)c1)C2=O
- fold change (FC) [1]: 0.051
- fold change (FC) [2]: <=2
- fold change (FC) [3]: <=2
- fold change (FC) [4]: 2.01
- fold change (FC) [5]: 1.51
- fold change (FC) [6]: 1.01
- AUC (B cell): < 0.5
- fold change (FC) [7]: <=2
- fold change (FC) [8]: <=1.4
- fold change (FC) [9]: <=2
- fold change (FC) [10]: <=1.2
- fold change (FC) [11]: 2.51
- fold change (FC) [12]: >4
- fold change (FC) [13]: 0.601
- fold change (FC) [14]: 1.01
- fold change (FC) [15]: <=2.5
- fold change (FC) [16]: 2.01
- fold change (FC) [17]: <=1.4
- fold change (FC) [18]: <=1
- fold change (FC) [19]: 1.01
- fold change (FC) [20]: <=1.5
- fold change (FC) [21]: <=1.5
- fold change (FC) [22]: 2.01
- fold change (FC) [23]: 1.201
- fold change (FC) [24]: <=2.5
- fold change (FC) [25]: <=2
- fold change (FC) [26]: <=1.2
- fold change (FC) [27]: 1.201
- fold change (FC) [28]: <=1.2
- fold change (FC) [29]: <=1
- fold change (FC) [30]: 2.01
- fold change (FC) [31]: <=2.5
- fold change (FC) [32]: <=1.4
- fold change (FC) [33]: 1.201
- fold change (FC) [34]: <=1.5
- fold change (FC) [35]: 1.01
- fold change (FC) [36]: 1.01
- fold change (FC) [37]: 0.101

Structure (SMILES): Cn1cnnc1C(F)(F)C(C)(F)c1cccc(N2Cc3c(cc(CN4CC[C@@H](F)C4)cc3C(F)(F)F)C2=O)c1 (single isomer, unassigned)
- fold change (FC) [1]: >=0.201
- fold change (FC) [2]: >4
- fold change (FC) [3]: 2.01
- fold change (FC) [4]: >=5
- fold change (FC) [5]: 2.01
- fold change (FC) [6]: >=7.5
- AUC (B cell): 1.01
- fold change (FC) [7]: <=2
- fold change (FC) [8]: >1.61
- fold change (FC) [9]: >4
- fold change (FC) [10]: 1.401
- fold change (FC) [11]: >=7.5
- fold change (FC) [12]: >4
- fold change (FC) [13]: >=1.001
- fold change (FC) [14]: 1.51
- fold change (FC) [15]: 2.51
- fold change (FC) [16]: 2.01
- fold change (FC) [17]: 1.41
- fold change (FC) [18]: 2.01
- fold change (FC) [19]: 2.01
- fold change (FC) [20]: 1.51
- fold change (FC) [21]: 2.01
- fold change (FC) [22]: >4
- fold change (FC) [23]: 1.201
- fold change (FC) [24]: 2.51
- fold change (FC) [25]: 2.01
- fold change (FC) [26]: 1.201
- fold change (FC) [27]: >1.601
- fold change (FC) [28]: 1.201
- fold change (FC) [29]: 1.01
- fold change (FC) [30]: >4
- fold change (FC) [31]: >3.01
- fold change (FC) [32]: >1.61
- fold change (FC) [33]: 1.401
- fold change (FC) [34]: 2.01
- fold change (FC) [35]: 2.01
- fold change (FC) [36]: 1.31
- fold change (FC) [37]: >=0.201

Structure (SMILES): C[C@H](Cc1nncn1C)c1cccc(N2Cc3c(cc(CN4CC(C)(O)C4)cc3C(F)(F)F)C2=O)c1
- fold change (FC) [1]: 0.151
- fold change (FC) [2]: >4
- fold change (FC) [3]: 2.01
- fold change (FC) [4]: >=5
- fold change (FC) [5]: 2.01
- fold change (FC) [6]: >=7.5
- AUC (B cell): 0.5
- fold change (FC) [7]: <=2
- fold change (FC) [8]: >1.61
- fold change (FC) [9]: >4
- fold change (FC) [10]: >1.601
- fold change (FC) [11]: >=7.5
- fold change (FC) [12]: >4
- fold change (FC) [13]: >=1.001
- fold change (FC) [14]: 1.31
- fold change (FC) [15]: <=2.5
- fold change (FC) [16]: 2.01
- fold change (FC) [17]: 1.41
- fold change (FC) [18]: 2.01
- fold change (FC) [19]: 2.01
- fold change (FC) [20]: 2.01
- fold change (FC) [21]: 2.01
- fold change (FC) [22]: >4
- fold change (FC) [23]: 1.201
- fold change (FC) [24]: >4.01
- fold change (FC) [25]: 3.01
- fold change (FC) [26]: 1.201
- fold change (FC) [27]: >1.601
- fold change (FC) [28]: 1.201
- fold change (FC) [29]: 1.01
- fold change (FC) [30]: >4
- fold change (FC) [31]: 2.51
- fold change (FC) [32]: >1.61
- fold change (FC) [33]: 1.401
- fold change (FC) [34]: 2.01
- fold change (FC) [35]: 2.01
- fold change (FC) [36]: 1.01
- fold change (FC) [37]: >=0.201
